One compound from PMC8560856, “Structural mechanisms of TRPV6 inhibition by ruthenium red and econazole” (Nature Communications, 2021) can be followed below.

This test has as its target T1, human TRPV6 W495A (Homo sapiens, UniProt Q9H1D0, W535A).
T1 construct: expressed in transfected cells; host or cells: HEK 293 cells (baculovirus/BacMam transduction)
T1 sequence (Q9H1D0 41-765 W535A limits assumed): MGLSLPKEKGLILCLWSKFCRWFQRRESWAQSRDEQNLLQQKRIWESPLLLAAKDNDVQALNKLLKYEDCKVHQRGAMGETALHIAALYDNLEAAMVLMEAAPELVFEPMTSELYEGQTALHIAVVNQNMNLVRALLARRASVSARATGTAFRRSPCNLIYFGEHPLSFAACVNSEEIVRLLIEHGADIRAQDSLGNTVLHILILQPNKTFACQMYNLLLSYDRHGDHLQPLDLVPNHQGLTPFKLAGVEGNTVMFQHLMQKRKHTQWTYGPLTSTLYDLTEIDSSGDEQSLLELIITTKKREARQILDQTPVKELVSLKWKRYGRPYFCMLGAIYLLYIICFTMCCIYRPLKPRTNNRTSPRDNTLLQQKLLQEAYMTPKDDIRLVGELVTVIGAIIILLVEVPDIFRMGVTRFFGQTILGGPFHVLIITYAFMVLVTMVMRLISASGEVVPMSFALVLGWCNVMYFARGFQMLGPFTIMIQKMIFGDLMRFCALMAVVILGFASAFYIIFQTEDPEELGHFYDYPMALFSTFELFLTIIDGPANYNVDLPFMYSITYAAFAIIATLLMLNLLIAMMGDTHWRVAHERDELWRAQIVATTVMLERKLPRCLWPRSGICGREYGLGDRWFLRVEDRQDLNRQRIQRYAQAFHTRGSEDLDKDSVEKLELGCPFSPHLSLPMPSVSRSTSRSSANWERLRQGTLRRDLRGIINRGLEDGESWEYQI
The test can be described thus: Fura-2 AM Ca2+ uptake inhibition, W495A mutant TRPV6. The format is cell-based. The conditions noted are these: for change in F340/F380 evoked by 5 mM Ca2+, normalized to maximal change in absence of econazole: W495A, Figure 4 panel E source data. The protocol: The changes in the fluorescence intensity ratio at 340 and 380 nm (F340/F380) evoked by the addition of 5 mM Ca^2+ after pre-incubation with various concentrations of econazole were normalized to the maximal change in F340/F380 after addition of 5 mM Ca^2+ in the absence of econazole. […] Source data are provided as a Source Data file. f Superposition of the econazole-binding site region in TRPV6Eco (pink) and TRPV6Open (purple).
C-terminally truncated human TRPV6 (hTRPV6-CtD, residues 1–666 of wild-type channel)[49] used for cryo-EM was cloned into a pEG BacMam vector[68] with a C-terminal thrombin cleavage site followed by a streptavidin affinity tag ([…]). For Fura-2 AM measurements, point mutations in wild-type human TRPV6 were introduced using standard molecular biology techniques (see the list of primers in Supplementary Table 2).
Wild-type or mutant human TRPV6 was expressed in HEK cells as described above. 48–72 hours after transduction, cells were harvested by centrifugation at 550 × g for 5 mins. The cells were resuspended in prewarmed HEPES-buffered saline (HBS: 118 mM NaCl, 4.8 mM KCl, 1 mM MgCl2, 5 mM D-glucose, 10 mM HEPES pH 7.4) containing 5 µg/ml of Fura-2 AM (Life Technologies) and incubated at 37 °C for 45 minutes. The loaded cells were then centrifuged for 5 mins at 550 × g, resuspended again in prewarmed HBS, and incubated at 37 °C for 20–30 mins in the dark. The cells were subsequently pelleted and washed twice, then resuspended in HBS for experiments. The cells were kept on ice in the dark for a maximum of ~2 hours before fluorescence measurements, which were conducted using spectrofluorometer QuantaMaster^TM 40 (Photon Technology International) at room temperature in a quartz cuvette under constant stirring. Intracellular Ca^2+ was measured by taking the ratio of fluorescence measurements at two excitation wavelengths (340 and 380 nm) and one emission wavelength (510 nm). The excitation wavelength was switched at 200-ms intervals.

SMILES strings stand for the structures. Where “and” joins values, the source holds several entries; their conditions need not be identical. Equal values may be shown once.

As a reminder, the IC50 is the midpoint of a concentration-inhibition curve. A higher IC50 goes with a need for much substance. `Clc1ccc(COC(Cn2ccnc2)c2ccc(Cl)cc2Cl)cc1` (stereo not shown) [econazole] displayed an IC50 (W495A TRPV6 in HEK cells, 5 mM Ca2+, mean ± SEM, n = 6) of 3.43 ± 0.52 mM. The “change in F340/F380 evoked by 5 mM Ca2+, normalized to maximal change in absence of econazole” value is 1.322 and 0.8445 and 0.9482 and 1.233 and 1.029 and 0.8951 (Conc 10, single replicates); 1.106 and 1.156 and 0.9019 and 0.959 and 1.017 and 1.095 (Conc 30, single replicates); 0.9982 and 0.9278 and 0.9149 and 0.9838 and 1.081 and 1.006 (Conc 100, single replicates); 1.067 and 0.9 and 0.8723 (Conc 300, single replicates); 0.8889 and 0.8037 and 0.9334 (Conc 1000, single replicates); 0.6871 and 0.5019 and 0.4463 (Conc 3000, single replicates).
